Consider 42 compounds from patent US20160046616A1, “NRF2 SMALL MOLECULE INHIBITORS FOR CANCER THERAPY” (THE JOHNS HOPKINS UNIVERSITY, priority 2013, published 2016).

Assay [1] has as its system A549 NRF2-ARE-Fluc stable cell line. Description: A549 Nrf2 assay: NRF2-ARE firefly luciferase reporter gene assay. It is filed as cell-based. As to conditions: read-out: Potency of inhibition, A549. The source says:
A549, the parental cell line, is a non-small-cell lung cancer (NSCLC) cell line with loss-of-function (LOF) Keap1 activity, thus NRF2 transcription factor constitutively translocates into the nucleus to activate the expression of downstream target genes of NRF2. A firefly luciferase reporter (Fluc) construct driven by a minimal promoter of NRF2-specific anti-oxidant responsive element (ARE) is stably expressed in the A549 cells. Compounds that reduce the translocation of NRF2 into the nucleus or prevent the interaction between NRF2 and ARE will lead to a decrease in luciferase activity.
The final concentration of DMSO was maintained at 0.46%. Control compounds Budesonide and Staurosporine were both added at a concentration of 2 mM and Budesonide also was added as a 1:10 titration, starting at 200 μM, to achieve dose-response. After an 18-24 hour incubation at 37° C., 95% humidity, and 5% CO2, 1 μL of 5× CellTiter-Fluor non-lytic cell viability assay reagent (Promega, Madison, Wis.) was added into the each well of the plates. The plates were then incubated for 30 minutes at room temperature before they were read on a ViewLux plate imager (Perkin Elmer, Waltham, Mass.) using an excitation wavelength of 405 nm and an emission wavelength of 525 nm.
A cell based reporter assay approach was used for the identification of agents that could inhibit Nrf2 mediated gene expression (FIG. 1). A549-ARE-luciferase cells express the luciferase gene driven by a minimal promoter and an enhancer element containing an NRF2 binding site (Antioxidant Response Element, ARE).
(§1) Representative compounds were assayed to assess the potency of inhibition in an A549 NRF2-ARE-Fluc stable cell line (A549 Nrf2 assay), in an H838 NRF2-ARE-Fluc stable cell line (H838 Nrf2 assay), and in an H1437 NRF2-ARE-Fluc stable cell line (H1437 Nrf2 assay) (see Table 3).
(In general: In a reporter assay the amount or activity of a reporter protein is the signal.)

For assay [2], the system named is H1437 NRF2-ARE-Fluc stable cell line. Description: H1437 Nrf2 assay: NRF2-ARE firefly luciferase reporter gene assay. It is filed as cell-based. As to conditions: read-out: Potency of inhibition, H1437.
Excerpt: H1437 is another NSCLC cell line with LOF Keap1 activity and constitutive translocation of NRF2 into the nucleus. A firefly luciferase reporter construct driven by a minimal promoter of NRF2-specific ARE is stably expressed in the H1437 cells. This cell line was used as a confirmation assay to make sure hits identified from primary screening and that passed counterscreen assays worked in different cell types with a constitutively active NRF2 pathway (deficiency in Keap1).
This assay was very similar to the primary assay except that the cell line was changed. […] The final concentration of DMSO was maintained at 0.46%. Control compounds Budesonide and Staurosporine were both added at a concentration of 2 mM and Budesonide was also added as a 1:10 titration, starting at 200 μM, to achieve dose-response. After an 18-24 hour incubation at 37° C., 95% humidity, and 5% CO2, 1 μL of 5× CellTiter-Fluor non-lytic cell viability assay reagent (Promega, Madison Wis.) was added into the each well of the plates. The plates were then incubated for 30 minutes at room temperature before they were read on a ViewLux plate imager (Perkin Elmer, Waltham Mass.) using an excitation wavelength of 405 nm and an emission wavelength of 525 nm.
as §1

[3] abbreviates: Homo sapiens, NCI-H1437, H1437 NRF2-ARE-Fluc stable cell line.

Read-outs that look alike come from different tables or passages of the source. Where only a bound is given, the exact number is not on record here.

For `O=C(Nc1ccc(S(=O)(=O)N2CCOCC2)cc1)c1ccc(CN2CCCCC2)cc1` [compound 179], the results for the IC50 in assay [1] (Homo sapiens) and in assay [2] (setting [3]) were 5 to 25 µM and > 25 µM, respectively.

As for `COc1ccccc1C(=O)N1CCc2cc(-c3nc(NC(=O)Cc4ccc5c(c4)OCO5)sc3C)ccc21` [Compound 120], the results for the IC50 in assay [1] (Homo sapiens) and in assay [2] (setting [3]) were < 5 µM and > 25 µM, respectively.

As to `CC(=O)N1CCN(CC(=O)Nc2nc(-c3ccc4c(c3)CCN4C(=O)c3ccccc3C)c(C)s2)CC1` [Compound 227], the IC50 in assay [1] (Homo sapiens) and in assay [2] (setting [3]) was 5 to 25 µM throughout.

Turning to `O=C(Nc1ccc(S(=O)(=O)N2CCOCC2)cc1)c1ccc(N2CCc3ccccc3C2)cc1` [compound 152], the IC50 in assay [1] (Homo sapiens) and in assay [2] (setting [3]) was < 5 µM in each case.

`O=C(Nc1ccc(S(=O)(=O)N2CCN(Cc3ccccc3)CC2)cc1)c1cnccn1` [Compound 34]: the figures for the IC50 in assay [1] (Homo sapiens) and in assay [2] (setting [3]) were < 5 µM and 5 to 25 µM, respectively.

As to `Cc1ccsc1C(=O)N1CCc2cc(-c3nc(NC(=O)Cc4ccc5c(c4)OCO5)sc3C)ccc21` [Compound 182], the IC50 in assay [1] (Homo sapiens) and in assay [2] (setting [3]) was < 5 µM in each case.

For `CC1CN(S(=O)(=O)c2ccc(NC(=O)c3ccc(CN4CCc5ccccc5C4)cc3)cc2)CC(C)O1` (stereo not drawn) [compound 155], the IC50 in assay [1] (Homo sapiens) and in assay [2] (setting [3]) was < 5 µM each time.

For the compound `O=C(Cc1ccccc1)Nc1cccc(-c2ccc(N3CCOCC3)cc2)n1` [Compound 78], the IC50 in assay [1] (Homo sapiens) and in assay [2] (setting [3]) was > 25 µM throughout.

For the compound `CC1CN(S(=O)(=O)c2ccc(NC(=O)c3ccc(CN4CCc5ccccc5C4)cc3)cc2)CCO1` (stereo not drawn) [compound 169], the IC50 in assay [1] (Homo sapiens) and in assay [2] (setting [3]) was < 5 µM throughout.

In the case of `O=C(Nc1ncc(CN2CCCCC2)s1)c1ccc(-c2cccc([N+](=O)[O-])c2)o1` [Compound 87], the IC50 in assay [1] (Homo sapiens) and in assay [2] (setting [3]) was > 25 µM each time.

Consider `Cc1cc(C(=O)Nc2ncc(Cc3ccc(C(F)(F)F)cc3)s2)nn1Cc1ccccn1` [Compound 193], for which the IC50 in assay [1] (Homo sapiens) and in assay [2] (setting [3]) was < 5 µM each time.

Consider `Cc1ccccc1C(=O)N1CCc2cc(-c3nc(NC(=O)Cc4ccc5ccccc5c4)sc3C)ccc21` [Compound 9], for which the IC50 in assay [1] (Homo sapiens) was < 5 µM; in assay [2] (setting [3]), 5 to 25 µM.

`O=C(Nc1ccc(S(=O)(=O)NC2CCOCC2)cc1)c1ccc(CN2CCc3ccccc3C2)cc1` [compound 176]: the IC50 in assay [1] (Homo sapiens) was < 5 µM; in assay [2] (setting [3]) it was 5 to 25 µM.

For `Cc1ccccc1S(=O)(=O)N1CCc2cc(-c3nc(NC(=O)Cc4cccc(F)c4)sc3C)ccc21` [Compound 126], the IC50 in assay [1] is < 5 µM; in assay [2] (H1437 NRF2-ARE-Fluc stable cell line), > 25 µM.

For `Cc1ccccc1C(=O)n1ncc2cc(-c3cccc(NC(=O)Cc4ccccc4)n3)ccc21` [Compound 95], the IC50 in assay [1] (Homo sapiens) is < 5 µM; in assay [2] (setting [3]) it was 5 to 25 µM.

In the case of `O=C(Cc1ccccc1)Nc1cccc(-c2ccc(N3CCCCC3)cc2)n1` [Compound 63], the IC50 in assay [1] (Homo sapiens) and in assay [2] (setting [3]) was > 25 µM throughout.

For the compound `Cc1ccccc1C(=O)N1CCc2cc(-c3nc(NC(=O)Cc4ccc(F)c(F)c4)sc3C)ccc21` [Compound 12], the IC50 in assay [1] (Homo sapiens) and in assay [2] (setting [3]) was < 5 µM each time.

Regarding `O=C(Nc1nc2cc(C(F)(F)F)ccc2s1)c1ccc(-c2cccc([N+](=O)[O-])c2)o1` [Compound 111], the IC50 in assay [1] (Homo sapiens) and in assay [2] (setting [3]) was > 25 µM each time.

Take `Cc1ccc(CC(=O)Nc2nc(-c3ccc4c(c3)CCN4C(=O)c3ccccc3C)c(C)s2)cc1C` [Compound 10]: the IC50 in assay [1] (Homo sapiens) was 5 to 25 µM; in assay [2] (setting [3]), > 25 µM.

As to `O=C(Nc1cccc(Cc2ccccc2)c1)c1ccc(-c2cccc([N+](=O)[O-])c2)o1` [Compound 56], the IC50 in assay [1] (Homo sapiens) and in assay [2] (setting [3]) was 5 to 25 µM each time.

For the compound `Cc1ccccc1C(=O)N1CCc2cc(-c3cccc(N4CCOCC4)n3)ccc21` [Compound 65], the IC50 in assay [1] (Homo sapiens) and in assay [2] (setting [3]) was 5 to 25 µM throughout.

Regarding `COc1ccc(CC(=O)Nc2nc(-c3ccc4c(c3)CCN4C(=O)c3ccccc3C)c(C)s2)cn1` [Compound 112], the IC50 in assay [1] (Homo sapiens) and in assay [2] (setting [3]) was < 5 µM in each case.

In the case of `O=C(Cc1ccccc1)Nc1cccc(-c2cnc3[nH]ccc3c2)n1` [Compound 88, N-(6-(1H-pyrrolo[2,3-b]pyridin-5-yl)pyridin-2-yl)-2-phenylacetamide], the values for the IC50 in assay [1] (Homo sapiens) and in assay [2] (setting [3]) were 5 to 25 µM and > 25 µM, respectively.

As for `O=C(Nc1ncc(Cc2ccc(C(F)(F)F)cc2)s1)c1ccc(Br)o1` [Compound 98], the IC50 in assay [1] (Homo sapiens) and in assay [2] (setting [3]) was 5 to 25 µM each time.

For the compound `O=C(Nc1ncc(Cc2ccc(C(F)(F)F)cc2)s1)c1ncc(-c2ccccc2)[nH]1` [Compound 151], the IC50 in assay [1] (Homo sapiens) and in assay [2] (setting [3]) was > 25 µM throughout.

With `Cc1ccccc1C(=O)N1CCc2cc(-c3nc(NC(=O)CN4CCOCC4)sc3C)ccc21` [Compound 77], the IC50 in assay [1] (Homo sapiens) and in assay [2] (setting [3]) was 5 to 25 µM each time.

As for `O=C(Nc1ccc(S(=O)(=O)N2CCOCC2)cc1)c1ccc(CN2CCCc3ccccc32)cc1` [compound 172], the IC50 in assay [1] (Homo sapiens) and in assay [2] (setting [3]) was < 5 µM throughout.

For `O=C(Nc1cccc(Cc2ccccc2)n1)c1ccc(-c2cccc([N+](=O)[O-])c2)o1` [Compound 142], the IC50 in assay [1] (Homo sapiens) is 5 to 25 µM; in assay [2] (setting [3]), > 25 µM.

On to `Cc1ccccc1S(=O)(=O)N1CCc2cc(-c3nc(NC(=O)Cc4ccncc4)sc3C)ccc21` [Compound 136], for which the IC50 in assay [1] (Homo sapiens) and in assay [2] (setting [3]) was < 5 µM throughout.

As to `Cc1sc(NC(=O)Cc2ccc3c(c2)OCO3)nc1-c1ccc2c(c1)CCN2C(=O)c1ccnn1C` [Compound 185], the IC50 in assay [1] (Homo sapiens) and in assay [2] (setting [3]) was < 5 µM throughout.

Consider `O=C(Nc1ncc(Cc2ccc(F)cc2)s1)c1ccn(-c2ccccc2)n1` [Compound 222], for which the IC50 in assay [1] (Homo sapiens) and in assay [2] (setting [3]) was < 5 µM each time.

Turning to `O=C(Nc1ccc(S(=O)(=O)N2CCOCC2)cc1)c1ccc(CCN2CCc3ccccc3C2)cc1` [compound 166], the IC50 in assay [1] (Homo sapiens) was < 5 µM; in assay [2] (setting [3]), 5 to 25 µM.

Consider `Cc1ccccc1C(=O)N1CCc2cc(-c3nc(NC(=O)Cc4cccc(OCCOCCOCCNC(=O)CCCC[C@@H]5SC[C@@H]6NC(=O)N[C@@H]65)c4)sc3C)ccc21` [Compound 240], for which the IC50 in assay [1] (Homo sapiens) was 5 to 25 µM; in assay [2] (setting [3]) it was < 5 µM.

In the case of `Cc1ccccc1C(=O)N1CCc2cc(-c3csc(NC(=O)Cc4ccc5c(c4)OCO5)n3)ccc21` [Compound 2], the IC50 in assay [1] (Homo sapiens) and in assay [2] (setting [3]) was 5 to 25 µM each time.

`O=C(Nc1ncc(Cc2ccc(C(F)(F)F)cc2)s1)c1ccn(Cc2ccccn2)n1` [Compound 192]: the IC50 in assay [1] (Homo sapiens) and in assay [2] (setting [3]) was > 25 µM throughout.

`Cc1sc(NC(=O)Cc2ccc3c(c2)OCO3)nc1-c1ccc2c(c1)CCN2C(=O)CN(C)C` [Compound 180]: the IC50 in assay [1] (Homo sapiens) was 5 to 25 µM; in assay [2] (setting [3]), > 25 µM.

For `COc1cccc(CC(=O)Nc2nc(-c3ccc4c(c3)CCN4C(=O)c3ccccc3C)c(C)s2)c1` [Compound 6], the IC50 in assay [1] (Homo sapiens) and in assay [2] (setting [3]) was < 5 µM in each case.

`NC(=O)C1CCN(c2ccc(S(=O)(=O)N3CCC(Cc4ccccc4)CC3)cn2)CC1` [Compound 41]: the values for the IC50 in assay [1] (Homo sapiens) and in assay [2] (setting [3]) were < 5 µM and 5 to 25 µM, respectively.

Turning to `CCN(CC)S(=O)(=O)c1ccc(NC(=O)c2ccc(CN3CCc4ccccc4C3)cc2)cc1` [compound 153], the IC50 in assay [1] (Homo sapiens) and in assay [2] (setting [3]) was < 5 µM throughout.

`Cc1ccccc1C(=O)N1CCc2cc(-c3cccc(NC(=O)Cc4ccc5c(c4)OCO5)n3)ccc21` [Compound 28]: the IC50 is 5 to 25 µM in assay [1] (Homo sapiens) and > 25 µM in assay [2] (setting [3]).

For the compound `CC(C)(C)OC(=O)N1CCN(S(=O)(=O)c2ccc(NC(=O)c3ccc(CN4CCc5ccccc5C4)cc3)cc2)CC1` [compound 144], the IC50 in assay [1] (Homo sapiens) and in assay [2] (setting [3]) was < 5 µM each time.

Take `Cc1ccccc1C(=O)N1CCc2cc(Br)ccc21` [Compound 107, (5-bromoindolin-1-yl)(o-tolyl)methanone]: the IC50 in assay [1] (Homo sapiens) was 5 to 25 µM; in assay [2] (setting [3]), > 25 µM.
